# Source: patent US9242992B2, “Crystal form of tricyclic benzopyran compound and production method thereof” (NISSAN CHEMICAL INDUSTRIES, LTD., priority 2009, dated 2016)
# Tests used:
# Assay type in all cases: physicochemical
# [1] = Thermostability, humidity stability and photostability tests (total impurities by HPLC); conditions: for Total amount of impurities by HPLC, initial value: Test Example 1, before the stability tests
# Description: The thermostability, humidity stability and photostability of the A-, B- and F-form crystals of Compound (1) were examined.
# The conditions for each test were as follows.
# Thermostability test: 60° C., humidity was not controlled, 2 weeks, in air-tight container
# Humidity stability test: 25° C., 90% RH, 2 weeks, in opened container
# Photostability test: 200 W/m^2·hr, 25° C., 60% RH, 57 hours, in opened container
# (§1) In addition, the stability of the crystals was evaluated by the degree of increase of the total amount of impurities by HPLC analysis.
# [2] = Acceleration test (total impurities by HPLC); conditions: for Increase of impurities in acceleration test (in words) / Total amount of impurities by HPLC, measured value after test: 40° C., 75% RH, 6 months, air-tight container; for Total amount of impurities by HPLC, initial value: Test Example 2, before the acceleration test
# Description: The A-, B- and E-form crystals of Compound (1) were subjected to an acceleration test. The conditions for the test were as follows.
# Acceleration test: 40° C., 75% RH, 6 months, in an air-tight container
# as §1
# [3] = Water adsorption analysis; conditions: 25° C., sample 0.2 g, pre-treatment 60° C. 20 hours
# Description: The A-, B- and E-form crystals of Compound (1) were evaluated by water adsorption analysis.
# [Measurement conditions] sample amount: 0.2 g; pre-treatment: 60° C., 20 hours; temperature 25° C., Volumetric adsorption apparatus (trade name: BELSORP 18 manufactured by BEL Japan, Inc.) was used.
# [4] = Solubility, Japanese Pharmacopoeia dissolution test in JP2 pH 6.8; conditions: for Solubility: JP2, pH 6.8, 60 minutes, 10 mg in 500 mL, 37° C.
# Description: The solubility and the specific surface area of the A-form, B-form, E-form and F-form crystals of Compound (1) were examined.
# [Measurement conditions] JP2, pH 6.8 (3.40 g of potassium dihydrogen phosphate and 3.55 g of anhydrous disodium hydrogen phosphate is dissolved in water to obtain 1 liter of solution. The 1 volume of the solution is mixed with the 1 volume of water to obtain JP2, pH 6.8.), 60 minutes
# according to the Japanese Pharmacopoeia fifteenth edition, dissolution test (Protocol of the dissolution test; sample amount: 10 mg, test solution: JP2, pH 6.8, 500 mL, sampling point: 5, 15, 30, 60 min, paddle rotational speed: […], bath temperature: 37° C.)
# [5] = Specific surface area by BET method (nitrogen adsorption); conditions: for Specific surface area: BET, adsorption temperature 77K, equilibrium time 300 seconds
# Description: [Measurement conditions] adsorption temperature: 77K, adsorption equilibrium time: 300 seconds
# [Measured value unit] square meter/gram
# The measurement was performed by the BET method using the nitrogen adsorption in liquid nitrogen after a pre-treatment in refluxed liquid nitrogen.
# [6] = High-temperature XRD measurement
# Description: The A-form and B-form crystals of Compound (1) were subjected to the high-temperature XRD measurement.
# As shown in FIG. 8 and FIG. 9, there was observed no change until 100° C. in the powder X-ray diffractogram of the A-form crystal and until 60° C. in the powder X-ray diffractogram of the B-form crystal.
Structure (SMILES),"Total amount of impurities by HPLC, initial value [1] [%]","Increase of impurities under the conditions (in words) ([1]; thermostability, humidity stability and photostability tests)",Increase of impurities in acceleration test (in words) [2],"Total amount of impurities by HPLC, measured value after test [2] [%]","Total amount of impurities by HPLC, initial value [2] [%]",Adsorption of water (in words) [3],Adsorption of water (in words) ([3]; listed as A-form),"Solubility in the JP2 solution (in words) ([4]; JP2, pH 6.8)",Solubility [4] [%],Specific surface area (in words) ([5]; BET method),Specific surface area [5] [square meter/gram],Temperature until which no change was observed in the powder X-ray diffractogram [6] [°C]
"Cc1cc(CO)nc2cc3c(cc12)OC(C)(C)[C@H](O)[C@H]3NCCc1ccccc1 [A-form crystal, (3R,4S)-7-hydroxymethyl-2,2,9-trimethyl-4-(phenethylamino)-3,4-dihydro-2H-pyrano[2,3-g]quinolin-3-ol]",0.84,no increase of impurities,no increase of impurities,0.80,0.70,less than that on E-form crystal,no adsorption of water,high solubility,36,high value,0.7,100
"Cc1cc(CO)nc2cc3c(cc12)OC(C)(C)[C@H](O)[C@H]3NCCc1ccccc1 [B-form crystal, (3R,4S)-7-hydroxymethyl-2,2,9-trimethyl-4-(phenethylamino)-3,4-dihydro-2H-pyrano[2,3-g]quinolin-3-ol]",0.55,,,1.15,0.42,"the adsorption of water was observed, the adsorption was reversible",,,27,,0.3,60
"Cc1cc(CO)nc2cc3c(cc12)OC(C)(C)[C@H](O)[C@H]3NCCc1ccccc1 [E-form crystal, (3R,4S)-7-hydroxymethyl-2,2,9-trimethyl-4-(phenethylamino)-3,4-dihydro-2H-pyrano[2,3-g]quinolin-3-ol]",,,no increase of impurities,0.64,0.64,no adsorption of water,,,23,,0.3,
"Cc1cc(CO)nc2cc3c(cc12)OC(C)(C)[C@H](O)[C@H]3NCCc1ccccc1 [F-form crystal, (3R,4S)-7-hydroxymethyl-2,2,9-trimethyl-4-(phenethylamino)-3,4-dihydro-2H-pyrano[2,3-g]quinolin-3-ol]",0.25,,,,,,,,30,,,
